The values below come from US12612412B2, “Antiviral heterocyclic compounds” (Enanta Pharmaceuticals, Inc., priority 2021, dated 2026).

The subject of assay [1] is genotype A, "Long" strain RSV. The experiment in a line: RSV-A assay (CPE protection in Hep-2 cells, ATPlite readout). Conditions: human respiratory syncytial virus, genotype A “Long” strain RSV, MOI 0.1, CPE protection, read-out: Human RSV-A (“Long”). It counts as cell-based, Human respiratory syncytial virus (HRSV). A digest of the protocol: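 Protection from RSV-induced cytopathic effect measured by ATP content (ATPlite) after 5-day culture. Infection used genotype A Long virus at MOI 0.1 on 8,000 Hep-2 cells per well, with compound serially diluted 2-fold; values are EC50.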
For orientation: Cellular ATP, detected with luciferase, serves as a proxy for viable cell number.

Assay [2] concerns recombinant HMPV CAN97-83 containing eGFP (MPV-GFP1). The experiment in a line: HMPV antiviral assay Method-A (MPV-GFP1 eGFP fluorescence in Vero E6 cells). It counts as cell-based, Human metapneumovirus (HMPV). The conditions noted are these: human metapneumovirus, Vero C1008, 120 h, read-out: HMPV EC50. In short, it runs like this:
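Vero E6 cells in serum-free OptiMEM with 0.5 μg/mL TPCK-trypsin were infected with eGFP-expressing HMPV CAN97-83 at MOI 0.05, with 8-point twofold dilutions from 8 or 2 μM (0.5% DMSO). After 5 days at 32° C, eGFP fluorescence gave % inhibition versus infected untreated wells. EC50 came from four-parameter logistic fits.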

The structures appear in SMILES notation. pEC50: −log10 of the molar value.

As to `COc1cc(C(=O)NC[C@](O)(c2cc3c(c(-c4ccc(F)cc4)n2)OC[C@]3(C)C(N)=O)C(F)(F)F)cn2cc(C3CC3)nc12` [Example 217], the pEC50 in assay [1] was above 6.70; in assay [2], above 6.30.
In the case of `C[C@]1(C(N)=O)COc2c1cc([C@@](O)(CNC(=O)c1cc(NC(=O)NC3CC3)c3ncc(Cl)cc3c1)C(F)(F)F)nc2-c1ccc(F)cc1` [Example 218], the pEC50 is above 6.70 in assay [1] and above 6.30 in assay [2].
In the same order, the values of `Cc1cnc2c(NC(=O)NC3CC3)cc(C(=O)NC[C@](O)(c3cc4c(c(-c5ccc(F)c(Cl)c5)n3)OC[C@]4(C)C(N)=O)C(F)(F)F)cc2c1` [Example 219] are above 6.70 and above 6.30.
In the same order, the values of `C[C@]1(C(N)=O)COc2c1cc([C@@](O)(CNC(=O)c1cc(NC(=O)NC3CC3)c3ncc(Cl)cc3c1)C(F)(F)F)nc2-c1ccc(F)c(Cl)c1` [Example 220] are above 6.70 and below 6.30.
For `Cc1cnc2c(NC(=O)N3CCC3)cc(C(=O)NC[C@](O)(c3cc4c(c(-c5ccc(F)cc5)n3)OC[C@]4(C)C(N)=O)C(F)(F)F)cc2c1` [Example 221], in that order: above 6.70 and below 6.30.
As for `C[C@]1(C(N)=O)COc2c1cc([C@@](O)(CNC(=O)c1cc(NC(=O)N3CCC3)c3ncc(Cl)cc3c1)C(F)(F)F)nc2-c1ccc(F)cc1` [Example 222], the pEC50 in assay [1] is above 6.70; in assay [2], below 6.30.
For the compound `Cc1cnc2c(NC(N)=O)cc(C(=O)NC[C@](O)(c3cc4c(c(-c5ccc(F)cc5)n3)OC[C@]4(C)C(N)=O)C(F)(F)F)cc2c1` [Example 223], the values for the pEC50 in assay [1] and in assay [2] were above 6.70 and below 6.30, respectively.
In the case of `C[C@]1(C(N)=O)COc2c1cc([C@@](O)(CNC(=O)c1cc(NC(N)=O)c3ncc(Cl)cc3c1)C(F)(F)F)nc2-c1ccc(F)cc1` [Example 224], the pEC50 in assay [1] was above 6.70; in assay [2], below 6.30.
As for `Cc1cnc2c(NC(=O)N3CCCC3)cc(C(=O)NC[C@](O)(c3cc4c(c(-c5ccc(F)cc5)n3)OC[C@]4(C)C(N)=O)C(F)(F)F)cc2c1` [Example 226], the pEC50 in assay [1] was above 6.70; in assay [2] it was below 6.30.
In the same order, the values of `CC[C@]1(C(N)=O)COc2c1cc([C@@](O)(CNC(=O)c1cc(OC)c3nn(C(F)F)cc3c1)C(F)(F)F)nc2-c1ccc(F)cc1` [Example 234] are above 6.70 and above 6.30.
For `CC[C@]1(C(N)=O)COc2c1cc([C@@](O)(CNC(=O)c1cc(OC3CC3)c3ncccc3c1)C(F)(F)F)nc2-c1ccc(F)cc1` [Example 235], in that order: above 6.70 and above 6.30.
In the same order, the values of `NC(=O)[C@@]1(C2CC2)COc2c1cc([C@@](O)(CNC(=O)c1cc(F)c3nc(N)sc3c1)C(F)(F)F)nc2-c1ccc(F)cc1` [Example 263] are above 6.70 and above 6.30.
Turning to `COc1cc(C(=O)NC[C@](O)(c2cc3c(c(-c4ccc(F)cc4)n2)OC[C@@]3(C(N)=O)C2CC2)C(F)(F)F)cc2cc(C(F)(F)F)cnc12` [Example 265], the pEC50 in assay [1] is above 6.70; in assay [2] it was above 6.30.
Turning to `COc1cc(C(=O)NC[C@](O)(c2cc3c(c(-c4ccc(F)cc4)n2)OC[C@@]3(C(N)=O)C2CC2)C(F)(F)F)cc2cn(C(F)F)nc12` [Example 267], the pEC50 in assay [1] is above 6.70; in assay [2], above 6.30.
For `COc1cc(C(=O)NC[C@](O)(c2cc3c(c(-c4ccc(F)cc4)n2)OC[C@@]3(C(N)=O)C2CC2)C(F)(F)F)cc2cccnc12` [Example 268], in that order: above 6.70 and below 6.30.
For `NC(=O)[C@@]1(C2CC2)COc2c1cc([C@@](O)(CNC(=O)c1cc(OC3CC3)c3ncccc3c1)C(F)(F)F)nc2-c1ccc(F)cc1` [Example 270], in that order: above 6.70 and above 6.30.
For `COc1cc(C(=O)NC[C@](O)(c2cc3c(c(-c4ccc(F)cc4)n2)OC[C@@]3(C(N)=O)C2CC2)C(F)(F)F)cc2cn(C3CC3)nc12` [Example 280], in that order: above 6.70 and above 6.30.
Regarding `COc1cc(C(=O)NC[C@](O)(c2cc3c(c(-c4ccc(Cl)c(F)c4)n2)OC[C@]3(C)C(N)=O)C(F)(F)F)cc2cn(C(F)F)nc12` [Example 300], the figures for the pEC50 in assay [1] and in assay [2] were above 6.70 and above 6.30, respectively.
For `COc1cc(C(=O)NC[C@](O)(c2cc3c(c(-c4ccc(Cl)c(F)c4)n2)OC[C@]3(C)C(N)=O)C(F)(F)F)cc2cc(C3CC3)nn12` [Example 301], in that order: above 6.70 and above 6.30.
Take `C[C@]1(C(N)=O)COc2c1cc([C@@](O)(CNC(=O)c1cc(F)c3nc(N)sc3c1)C(F)(F)F)nc2-c1ccc(Cl)c(F)c1` [Example 305]: the pEC50 in assay [1] is above 6.70; in assay [2], above 6.30.
In the same order, the values of `C[C@]1(C(N)=O)COc2c1cc([C@@](O)(CNC(=O)c1cc(F)c3nc(N)sc3c1)C(F)(F)F)nc2-c1ccc(Cl)c(Cl)c1` [Example 306] are above 6.70 and above 6.30.
For `C[C@]1(C(N)=O)COc2c1cc([C@@](O)(CNC(=O)c1cc(F)c3nc(N)sc3c1)C(F)(F)F)nc2-c1ccc(Cl)cc1` [Example 307], in that order: above 6.70 and above 6.30.
For `C[C@]1(C(N)=O)COc2c1cc([C@@](O)(CNC(=O)c1cc(F)c3nc(N)sc3c1)C(F)(F)F)nc2-c1ccc(F)c(F)c1` [Example 308], in that order: above 6.70 and above 6.30.
On to `C[C@]1(C(N)=O)COc2c1cc([C@@](O)(CNC(=O)c1cc(F)c3nc(N)sc3c1)C(F)(F)F)nc2-c1ccc(C#N)cc1` [Example 309], for which the results for the pEC50 in assay [1] and in assay [2] were above 6.70 and below 6.30, respectively.
In the same order, the values of `COc1cc(C(=O)NC[C@](O)(c2cc3c(c(-c4ccc(Cl)cc4)n2)OC[C@]3(C)C(N)=O)C(F)(F)F)cc2cc(C(F)(F)F)cnc12` [Example 314] are above 6.70 and above 6.30.
For `COc1cc(C(=O)NC[C@](O)(c2cc3c(c(-c4ccc(F)c(F)c4)n2)OC[C@]3(C)C(N)=O)C(F)(F)F)cc2cc(C(F)(F)F)cnc12` [Example 315], in that order: above 6.70 and above 6.30.
Turning to `C[C@]1(C(N)=O)COc2c1cc([C@@](O)(CNC(=O)c1cc(OC3CC3)n3nc(C4CC4)cc3c1)C(F)(F)F)nc2-c1ccc(F)cc1` [Example 321], the pEC50 in assay [1] is above 6.70; in assay [2] it was above 6.30.
Consider `COc1cc(C(=O)NC[C@](O)(c2cc3c(c(-c4ccc(F)cc4)n2)OC[C@]3(C)C(N)=O)C(F)(F)F)cc2cc(C3CCC3)nn12` [Example 322], for which the pEC50 in assay [1] is above 6.70; in assay [2] it was below 6.30.
`COc1cc(C(=O)NC[C@](O)(c2cc3c(c(-c4ccc(F)cc4)n2)OC[C@]3(C)C(N)=O)C(F)(F)F)cc2cn(C3CCC3)nc12` [Example 323]: the values for the pEC50 in assay [1] and in assay [2] were above 6.70 and below 6.30, respectively.
In the same order, the values of `COc1cc(C(=O)NC[C@](O)(c2cc3c(c(-c4ccc(F)c(Cl)c4)n2)OC[C@]3(C)C(N)=O)C(F)(F)F)cc2cn(C3CCC3)nc12` [Example 324] are above 6.70 and above 6.30.
With `Cc1ccc2cc(C(=O)NC[C@](O)(c3cc4c(c(-c5ccc(F)cc5)n3)OC[C@]4(C)C(N)=O)C(F)(F)F)cc(OC(F)F)c2n1` [Example 327], the figures for the pEC50 in assay [1] and in assay [2] were above 6.70 and below 6.30, respectively.
In the same order, the values of `[2H]C([2H])([2H])NC(=O)Nc1cc(C(=O)NC[C@](O)(c2cc3c(c(-c4ccc(F)cc4)n2)OC[C@]3(C)C(N)=O)C(F)(F)F)cc2cc(C)cnc12` [Example 329] are above 6.70 and above 6.30.
With `COc1cc(C(=O)NC[C@](O)(c2cc3c(c(-c4ccc(F)cc4)n2)OC[C@]3(C)C(N)=O)C(F)(F)F)cc2c1OCO2` [Example 441], the pEC50 in assay [1] is above 6.70; in assay [2], below 6.30.
